{"source": "patent US10076519B2", "about": "(CYTOKINETICS, INC., priority 2010, dated 2018)", "test_system": "rabbit skeletal myofibrils (fast skeletal myofibrils)", "assay": "Activation of fast skeletal myofibrils (PUMA assay, PK/LDH-coupled ATPase at pCa25)", "format": "biochemical", "procedure,_shortened": "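ATPase activity of Triton-washed rabbit skeletal myofibrils, roughly 90% fast fibres, tracked by NADH loss at 340 nm through a PK/LDH-coupled ADP-regenerating system. Calcium set to 25% of maximal activity (pCa25), in PIPES 12 mM pH 6.8 with 2 mM MgCl2 and 1 mM DTT; AC1.4 reported.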", "key": {"[1]": {"conditions": "median AC1.4 reported as class, procedure of Example 39"}, "[2]": {"conditions": "median AC1.4 class, procedure of Example 39"}, "[3]": {"conditions": "AC1.4 determined according to the procedure of Example 39, reported as class symbols"}}}
{"molecule": "CNC(=O)c1cccc(-c2ccc(NC[C@]3(c4ncccc4F)C[C@H](F)C3)nn2)c1", "note": "[{3-[6-({[3-fluoro-1-(3-fluoro(2-pyridyl))cyclobutyl]methyl}ami-no)pyridazin-3-yl]phenyl}-N-methylcarboxamide]", "values": [{"measurement": "Mean AC1.4", "setting": "[1]", "result": "A (A=<1 uM)"}]}
{"molecule": "O=C(NC1COC1)c1cccc(-c2ccc(NC[C@]3(c4ncccc4F)C[C@H](F)C3)nn2)c1", "note": "[{3-[6-({[3-fluoro-1-(3-fluoro(2-pyridyl))cyclobutyl]methyl}ami-no)pyridazin-3-yl]phenyl}-N-oxetan-3-ylcarboxamide]", "values": [{"measurement": "Mean AC1.4", "setting": "[1]", "result": "B (B=1-10 uM)"}]}
{"molecule": "OCc1cccc(-c2ccc(NC[C@]3(c4ncccc4F)C[C@H](F)C3)nn2)c1", "note": "[{3-[6-({[3-fluoro-1-(3-fluoro(2-pyridyl))cyclobutyl]methyl}ami-no)pyridazin-3-yl]phenyl}methan-1-ol]", "values": [{"measurement": "Mean AC1.4", "setting": "[1]", "result": "B (B=1-10 uM)"}]}
{"molecule": "CNC(=O)c1cccc(-c2ccc(NCC3(c4ncccc4F)CCC3)nn2)c1", "note": "[{3-[6-({[(3-fluoro(2-pyridyl))cyclobutyl]methyl}ami-no)pyridazin-3-yl]phenyl}-N-methylcarboxamide]", "values": [{"measurement": "Mean AC1.4", "setting": "[1]", "result": "B (B=1-10 uM)"}]}
{"molecule": "CNC(=O)c1ccc(O)c(-c2ccc(NCC3(c4ncccc4F)CCC3)nn2)c1", "note": "[{3-[6-({[(3-fluoro(2-pyridyl))cyclobutyl]methyl}amino)pyr-idazin-3-yl]-4-hydroxyphenyl}-N-methylcarboxamide]", "values": [{"measurement": "Mean AC1.4", "setting": "[1]", "result": "B (B=1-10 uM)"}]}
{"molecule": "CS(=O)(=O)Nc1nccc(-c2ccc(NCC3(c4ncccc4F)CCC3)nn2)n1", "note": "[{4-[6-({[(3-fluoro(2-pyridyl))cyclobutyl]methyl}ami-no)pyridazin-3-yl]pyrimidin-2-yl}(methylsulfonyl)amine]", "values": [{"measurement": "Mean AC1.4", "setting": "[2]", "result": "D (D=>20 uM)"}]}
{"molecule": "CN(C)C(=O)c1ccc(F)c(-c2ccc(NC[C@]3(c4ncccc4F)C[C@H](F)C3)nn2)c1", "note": "[{4-fluoro-3-[6-({[3-fluoro-1-(3-fluoro(2-pyridyl))cyclobutyl]methyl}ami-no)pyridazin-3-yl]phenyl}-N,N-dimethylcarboxamide]", "values": [{"measurement": "Mean AC1.4", "setting": "[1]", "result": "B (B=1-10 uM)"}]}
{"molecule": "CN1CC(NC(=O)c2ccc(F)c(-c3ccc(NC[C@]4(c5ncccc5F)C[C@H](F)C4)nn3)c2)C1", "note": "[{4-fluoro-3-[6-({[3-fluoro-1-(3-fluoro(2-pyridyl))cyclobutyl]methyl}ami-no)pyridazin-3-yl]phenyl}-N-(1-methylazetidin-3-yl)carboxamide]", "values": [{"measurement": "Mean AC1.4", "setting": "[1]", "result": "B (B=1-10 uM)"}]}
{"molecule": "O=C(NCC(F)(F)F)c1ccc(F)c(-c2ccc(NC[C@]3(c4ncccc4F)C[C@H](F)C3)nn2)c1", "note": "[{4-fluoro-3-[6-({[3-fluoro-1-(3-fluoro(2-pyridyl))cyclobutyl]methyl}ami-no)pyridazin-3-yl]phenyl}-N-(2,2,2-trifluoroethyl)carboxamide]", "values": [{"measurement": "Mean AC1.4", "setting": "[1]", "result": "B (B=1-10 uM)"}]}
{"molecule": "CC(C)NC(=O)c1ccc(F)c(-c2ccc(NC[C@]3(c4ncccc4F)C[C@H](F)C3)nn2)c1", "note": "[{4-fluoro-3-[6-({[3-fluoro-1-(3-fluoro(2-pyridyl))cyclobutyl]methyl}ami-no)pyridazin-3-yl]phenyl}-N-(methylethyl)carboxamide]", "values": [{"measurement": "Mean AC1.4", "setting": "[2]", "result": "A (A=<1 uM)"}]}
{"molecule": "CNC(=O)c1ccc(F)c(-c2ccc(NC[C@]3(c4ncccc4F)C[C@H](F)C3)nn2)c1", "note": "[{4-fluoro-3-[6-({[3-fluoro-1-(3-fluoro(2-pyridyl))cyclobutyl]methyl}ami-no)pyridazin-3-yl]phenyl}-N-methylcarboxamide]", "values": [{"measurement": "Mean AC1.4", "setting": "[2]", "result": "A (A=<1 uM)"}]}
{"molecule": "CNC(=O)c1ccc(F)c(-c2ccc(NCC3(c4ncccc4F)CCC3)nn2)c1", "note": "[{4-fluoro-3-[6-({[(3-fluoro(2-pyridyl))cyclobutyl]methyl}ami-no)pyridazin-3-yl]phenyl}-N-methylcarboxamide]", "values": [{"measurement": "Mean AC1.4", "setting": "[1]", "result": "A (A=<1 uM)"}]}
{"molecule": "CNC(=O)c1cc(-c2ccc(NC[C@]3(c4ncccc4F)C[C@H](F)C3)nn2)c(F)cc1O", "note": "[{4-fluoro-5-[6-({[3-fluoro-1-(3-fluoro(2-pyridyl))cyclobutyl]methyl}ami-no)pyridazin-3-yl]-2-hydroxyphenyl}-N-methylcarboxamide]", "values": [{"measurement": "Mean AC1.4", "setting": "[1]", "result": "A (A=<1 uM)"}]}
{"molecule": "CS(=O)(=O)Nc1n[nH]c2ccc(-c3ccc(NC[C@]4(c5ncccc5F)C[C@H](F)C4)nn3)cc12", "note": "[{5-[6-({[3-fluoro-1-(3-fluoro(2-pyridyl))cyclobutyl]methyl}ami-no)pyridazin-3-yl](1H-indazol-3-yl)}(methylsulfonyl)amine]", "values": [{"measurement": "Mean AC1.4", "setting": "[2]", "result": "A (A=<1 uM)"}]}
{"molecule": "CN(C)C(=O)c1cc(-c2ccc(NC[C@]3(c4ncccc4F)C[C@H](F)C3)nn2)ccc1O", "note": "[{5-[6-({[3-fluoro-1-(3-fluoro(2-pyridyl))cyclobutyl]methyl}ami-no)pyridazin-3-yl]-2-hydroxyphenyl}-N,N-dimethylcarboxamide]", "values": [{"measurement": "Mean AC1.4", "setting": "[1]", "result": "B (B=1-10 uM)"}]}
{"molecule": "CNC(=O)c1cc(-c2ccc(NC[C@]3(c4ncccc4F)C[C@H](F)C3)nn2)ccc1O", "note": "[{5-[6-({[3-fluoro-1-(3-fluoro(2-pyridyl))cyclobutyl]methyl}ami-no)pyridazin-3-yl]-2-hydroxyphenyl}-N-methylcarboxamide]", "values": [{"measurement": "Mean AC1.4", "setting": "[1]", "result": "B (B=1-10 uM)"}]}
{"molecule": "CNC(=O)c1cc2cc(-c3ccc(NC[C@]4(c5ncccc5F)C[C@H](F)C4)nn3)ccc2[nH]1", "note": "[{5-[6-({[3-fluoro-1-(3-fluoro(2-pyridyl))cyclobutyl]methyl}ami-no)pyridazin-3-yl]indol-2-yl}-N-methylcarboxamide]", "values": [{"measurement": "Mean AC1.4", "setting": "[1]", "result": "A (A=<1 uM)"}]}
{"molecule": "CNC(=O)c1ccc(-c2ccc(NCC3(c4ncccc4F)CCC3)nn2)s1", "note": "[{5-[6-({[(3-fluoro(2-pyridyl))cyclobutyl]methyl}ami-no)pyridazin-3-yl](2-thienyl)}-N-methylcarboxamide]", "values": [{"measurement": "Mean AC1.4", "setting": "[1]", "result": "B (B=1-10 uM)"}]}
{"molecule": "NCCn1nnc(-c2ccc(NCC3(c4ncccc4F)CCC3)nn2)n1", "note": "[{6-[2-(2-aminoethyl)(1,2,3,4-tetraazol-5-yl)]pyridazin-3-yl}{[(3-fluoro(2-pyridyl))cyclobutyl]methyl}amine]", "values": [{"measurement": "Mean AC1.4", "setting": "[2]", "result": "D (D=>20 uM)"}]}
{"molecule": "NCc1ccc(F)cc1-c1ccc(NCC2(c3ncccc3F)CCC2)nn1", "note": "[{6-[2-(aminomethyl)-5-fluorophenyl]pyridazin-3-yl} {[(3-fluoro(2-pyridyl))cyclobutyl]methyl}amine]", "values": [{"measurement": "Mean AC1.4", "setting": "[2]", "result": "C (C=10-20 uM)"}]}
{"molecule": "NCc1ccccc1-c1ccc(NCC2(c3ncccc3F)CCC2)nn1", "note": "[{6-[2-(aminomethyl)phenyl]pyridazin-3-yl}{[(3-fluoro(2-pyridyl))cyclobutyl]methyl}amine]", "values": [{"measurement": "Mean AC1.4", "setting": "[2]", "result": "D (D=>20 uM)"}]}
{"molecule": "CC(C)(CNc1ccc(-c2cccc(CN)c2)nn1)c1ccc(F)cc1", "note": "[{6-[3-(aminomethyl)phenyl]pyridazin-3-yl}[2-(4-fluorophenyl)-2-methylpropyl]amine]", "values": [{"measurement": "Mean AC1.4", "setting": "[3]", "result": "B (B=1-10 uM)"}]}
{"molecule": "CCNc1n[nH]c2ccc(-c3ccc(NCC(C)(C)c4ccc(F)cc4)nn3)cc12", "note": "[{6-[3-(ethylamino)(1H-indazol-5-yl)]pyridazin-3-yl}[2-(4-fluorophenyl)-2-methylpropyl]amine]", "values": [{"measurement": "Mean AC1.4", "setting": "[3]", "result": "A (A=<1 uM)"}]}
{"molecule": "CCNc1n[nH]c2ccc(-c3ccc(NCC4(c5ccccn5)CCC4)nn3)cc12", "note": "[{6-[3-(ethylamino)(1H-indazol-5-yl)]pyridazin-3-yl}[(2-pyridylcyclobutyl)methyl]amine]", "values": [{"measurement": "Mean AC1.4", "setting": "[3]", "result": "A (A=<1 uM)"}]}
{"molecule": "CCNc1n[nH]c2ccc(-c3ccc(NCC4(c5ncccc5F)CCC4)nn3)cc12", "note": "[{6-[3-(ethylamino)(1H-indazol-5-yl)]pyridazin-3-yl}{[(3-fluoro(2-pyridyl))cyclobutyl]methyl}amine]", "values": [{"measurement": "Mean AC1.4", "setting": "[3]", "result": "A (A=<1 uM)"}]}
{"molecule": "NCc1ccc(-c2ccc(NCC3(c4ncccc4F)CCC3)nn2)cc1", "note": "[{6-[4-(aminomethyl)phenyl]pyridazin-3-yl}{[(3-fluoro(2-pyridyl))cyclobutyl]methyl}amine]", "values": [{"measurement": "Mean AC1.4", "setting": "[2]", "result": "B (B=1-10 uM)"}]}
{"molecule": "NC(c1cnc(-c2ccc(NCC3(c4ncccc4F)CCC3)nn2)s1)C(F)(F)F", "note": "(centres unmarked) [{6-[5-(1-amino-2,2,2-trifluoroethyl)(1,3-thiazol-2-yl)]pyridazin-3-yl}{[(3-fluoro(2-pyridyl))cyclobutyl]methyl}amine]", "values": [{"measurement": "Mean AC1.4", "setting": "[2]", "result": "B (B=1-10 uM)"}]}
{"molecule": "NC1(c2cnc(-c3ccc(NCC4(c5ncccc5F)CCC4)nn3)s2)COC1", "note": "[{6-[5-(3-aminooxetan-3-yl)(1,3-thiazol-2-yl)]pyridazin-3-yl}{[(3-fluoro(2-pyridyl))cyclobutyl]methyl}amine]", "values": [{"measurement": "Mean AC1.4", "setting": "[2]", "result": "D (D=>20 uM)"}]}
{"molecule": "NCc1cnc(-c2ccc(NCC3(c4ncccc4F)CCC3)nn2)s1", "note": "[{6-[5-(aminomethyl)(1,3-thiazol-2-yl)]pyridazin-3-yl}{[(3-fluoro(2-pyridyl))cyclobutyl]methyl}amine]", "values": [{"measurement": "Mean AC1.4", "setting": "[2]", "result": "B (B=1-10 uM)"}]}
{"molecule": "CC(C)(CNc1ccc(-c2ccc(CN)nc2)nn1)c1ccc(F)cc1", "note": "[{6-[6-(aminomethyl)(3-pyridyl)]pyridazin-3-yl}[2-(4-fluorophenyl)-2-methylpropyl]amine]", "values": [{"measurement": "Mean AC1.4", "setting": "[3]", "result": "B (B=1-10 uM)"}]}
{"molecule": "Fc1cccnc1[C@]1(CNc2ccc(-c3ccc(NC4CC4)nc3)nn2)C[C@@H](F)C1", "note": "[{6-[6-(cyclopropylamino)(3-pyridyl)]pyridazin-3-yl}{[3-fluoro-1-(3-fluoro(2-pyridyl))cyclobutyl]methyl}amine]", "values": [{"measurement": "Mean AC1.4", "setting": "[1]", "result": "D (D=>20 uM)"}]}
{"molecule": "Nc1ncc(-c2ccc(NC[C@]3(c4ncccc4F)C[C@H](F)C3)nn2)cc1C(F)(F)F", "note": "[{6-[6-amino-5-(trifluoromethyl)(3-pyridyl)]pyridazin-3-yl}{[3-fluoro-1-(3-fluoro(2-pyridyl))cyclobutyl]methyl}amine]", "values": [{"measurement": "Mean AC1.4", "setting": "[1]", "result": "B (B=1-10 uM)"}]}
{"molecule": "COc1ncc(-c2ccc(NC[C@]3(c4ncccc4F)C[C@H](F)C3)nn2)cc1C", "note": "[{[3-fluoro-1-(3-fluoro(2-pyridyl))cyclobutyl]methyl}[6-(6-methoxy-5-methyl(3-pyridyl))pyridazin-3-yl]amine]", "values": [{"measurement": "Mean AC1.4", "setting": "[1]", "result": "D (D=>20 uM)"}]}
{"molecule": "CNc1n[nH]c2ccc(-c3ccc(NC[C@]4(c5ncccc5F)C[C@H](F)C4)nn3)cc12", "note": "[{[3-fluoro-1-(3-fluoro(2-pyridyl))cyclobutyl]methyl}{6-[3-(methylamino)(1H-indazol-5-yl)]pyridazin-3-yl}amine]", "values": [{"measurement": "Mean AC1.4", "setting": "[2]", "result": "A (A=<1 uM)"}]}
{"molecule": "CNc1ccc(-c2ccc(NC[C@]3(c4ncccc4F)C[C@H](F)C3)nn2)cn1", "note": "[{[3-fluoro-1-(3-fluoro(2-pyridyl))cyclobutyl]methyl}{6-[6-(methylamino)(3-pyridyl)]pyridazin-3-yl}amine]", "values": [{"measurement": "Mean AC1.4", "setting": "[1]", "result": "B (B=1-10 uM)"}]}
